Reference: US7205305B2, “Inhibitors of p38” (Vertex Pharmaceuticals Incorporated, priority 1996, dated 2007)
Like-named read-outs stand apart in the source and are kept apart here.

Assays:
[1] = system: IL-6 production in whole blood; assay: Inhibition of IL-6 production in LPS-stimulated whole blood ("WB"); format: cell-based, human
Procedure: (§1) Inhibitors were serially diluted in DMSO from a 20 mM stock. At least 6 serial dilutions were prepared. Then 4× inhibitor stocks were prepared by adding 4 μl of an inhibitor dilution to 1 ml of RPMI1640 medium/10% fetal bovine serum. The 4× inhibitor stocks contained inhibitor at concentrations of 80 μM, 32 μM, 12.8 μM, 5.12 μM, 2.048 μM, 0.819 μM, 0.328 μM, 0.131 μM, 0.052 μM, 0.021 μM etc. The 4× inhibitor stocks were pre-warmed at 37° C. until use.
(§2) Alternatively, whole blood containing an anti-coagulant was used directly in the assay.
(§3) We placed 100 μl of cell suspension or whole blood in each well of a 96-well cell culture plate. Then we added 50 μl of the 4× inhibitor stock to the cells. Finally, we added 50 μl of a lipopolysaccharide (LPS) working stock solution (16 ng/ml in cell culture medium) to give a final concentration of 4 ng/ml LPS in the assay. The total assay volume of the vehicle control was also adjusted to 200 μl by adding 50 μl cell culture medium. The PBMC cells or whole blood were then incubated overnight (for 12–15 hours) at 37° C./5% CO2 in a humidified atmosphere.
(§4) The next day the cells were mixed on a shaker for 3–5 minutes before centrifugation at 500×g for 5 minutes. Cell culture supernatants were harvested and analyzed by ELISA for levels of IL-1b (R & D Systems, Quantikine kits, #DBL50), TNF-α (BioSource, #KHC3012), IL-6 (Endogen, #EH2-IL6) and IL-8 (Endogen, #EH2-IL8) according to the instructions of the manufacturer. The ELISA data were used to generate dose-response curves from which IC50 values were derived.

[2] = system: IL-1 production in whole blood; assay: Inhibition of IL-1 production in LPS-stimulated whole blood ("WB"); format: cell-based, human
Procedure: as §1, §2, §3, §4

activated p38 = activated p38 (Homo sapiens, UniProt Q16539); assay: Inhibition of phosphorylation of EGF receptor peptide ("kinase"); format: biochemical; conditions: inhibition of phosphorylation of EGF receptor peptide by activated p38
Sequence of activated p38 (Q16539 whole entry): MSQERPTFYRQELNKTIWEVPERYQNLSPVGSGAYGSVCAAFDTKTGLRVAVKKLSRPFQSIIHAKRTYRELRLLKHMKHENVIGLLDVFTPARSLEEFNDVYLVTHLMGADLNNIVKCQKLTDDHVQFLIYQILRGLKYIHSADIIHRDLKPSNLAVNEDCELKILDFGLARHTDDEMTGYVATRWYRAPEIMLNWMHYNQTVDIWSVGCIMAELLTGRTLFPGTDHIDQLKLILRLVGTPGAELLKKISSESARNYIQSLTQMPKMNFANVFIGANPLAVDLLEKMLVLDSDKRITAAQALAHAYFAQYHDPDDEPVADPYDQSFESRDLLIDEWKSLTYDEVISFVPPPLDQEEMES
Procedure, shortened: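 Activated p38 was preincubated with inhibitor for 15 min at room temperature in 100 mM HEPES pH 7.6, 10 mM MgCl2, 25 mM β-glycerophosphate, 10% glycerol, 5% DMSO final. Reaction used 200 μM EGF receptor peptide and 100 μM ATP for 30 min at 30° C. TFA-quenched phosphopeptide was quantified by reverse-phase HPLC.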

[3] = system: TNF production in LPS-stimulated PBMCs; assay: Inhibition of TNF production in LPS-stimulated PBMCs ("cell"); format: cell-based, human
Procedure, shortened: (§5)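 Cytokine levels (IL-1β, TNF-α) in culture supernatants quantified by ELISA, with IC50 taken from dose-response curves. Fresh human PBMCs in RPMI1640 with 10% FBS received serially diluted compound plus LPS (4 ng/ml final) and were cultured 12–15 h at 37 °C, 5% CO2.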

[4] = system: IL-1 production in LPS-stimulated PBMCs; assay: Inhibition of IL-1 production in LPS-stimulated PBMCs ("cell"); format: cell-based, human
Procedure, shortened: as §5

[5] = system: TNF production in whole blood; assay: Inhibition of TNF production in LPS-stimulated whole blood ("WB"); format: cell-based, human
Procedure: as §1, §2, §3, §4

Compound	IC50 ([1]; Homo sapiens) [nM]	IC50 ([2]; Homo sapiens) [nM]	IC50 (activated p38) [nM]	IC50 ([3]; Homo sapiens, PBMC) [nM]	IC50 ([4]; Homo sapiens, PBMC) [nM]	IC50 ([5]; Homo sapiens) [nM]	IC50 [1] [nM]	IC50 [2] [nM]	IC50 [3] [nM]	IC50 [4] [nM]	IC50 [5] [nM]
N#Cc1ccccc1SC1=NN2CNC(=O)C(c3c(Cl)cccc3Cl)=C2C=C1 [Compound 116]	≥ 500	≥ 500	≤ 100	100 to 500	≤ 100	≥ 500	–	–	–	–	–
Nc1cc(F)ccc1SC1=NN2CNC(=O)C(c3c(Cl)cccc3Cl)=C2C=C1 [Compound 117]	≤ 250	250 to 500	≤ 100	≤ 100	≤ 100	250 to 500	–	–	–	–	–
NCc1ccccc1SC1=NN2CNC(=O)C(c3c(Cl)cccc3Cl)=C2C=C1 [Compound 118]	≥ 500	≥ 500	100 to 1000	100 to 500	100 to 500	≥ 500	–	–	–	–	–
COc1ccc(C2=C3C=CC(Sc4ccc(F)cc4)=NN3CNC2=O)c(Cl)c1OC [Compound 121]	≥ 500	≥ 500	≤ 100	100 to 500	≤ 100	≥ 500	–	–	–	–	–
Nc1ccc(F)cc1SC1=NN2CNC(=O)C(c3c(Cl)cccc3Cl)=C2C=C1 [Compound 122]	≥ 500	≥ 500	100 to 1000	≥ 500	100 to 500	≥ 500	–	–	–	–	–
O=C1NCN2N=C(Sc3ccccc3CNc3ncc[nH]3)C=CC2=C1c1c(Cl)cccc1Cl [Compound 123]	≥ 500	≥ 500	100 to 1000	100 to 500	100 to 500	≥ 500	–	–	–	–	–
Nc1ccc(Cl)c(C2=C3C=CC(Sc4ccc(F)cc4)=NN3CNC2=O)c1Cl [Compound 125]	≥ 500	≥ 500	≤ 100	≤ 100	≤ 100	≥ 500	–	–	–	–	–
O=C1NCN2N=C(Sc3ccc(F)cc3Cl)C=CC2=C1c1c(Cl)cccc1Cl [Compound 127]	≤ 250	250 to 500	≤ 100	≤ 100	≤ 100	250 to 500	–	–	–	–	–
O=C1NCN2N=C(Sc3ccc(F)cc3)C=CC2=C1c1cc2c(cc1Cl)OCO2 [Compound 129]	250 to 500	250 to 500	≤ 100	≤ 100	≤ 100	≥ 500	–	–	–	–	–
COc1cc(Cl)c(C2=C3C=CC(Sc4ccc(F)cc4)=NN3CNC2=O)cc1O [Compound 135]	≥ 500	≥ 500	≤ 100	≥ 500	100 to 500	≥ 500	–	–	–	–	–
O=C1NCN2N=C(Sc3ccc(F)cc3Cl)C=CC2=C1c1cc2c(cc1Cl)OCO2 [Compound 136]	250 to 500	≥ 500	≤ 100	≤ 100	≤ 100	≥ 500	–	–	–	–	–
Nc1ccc(C2=C3C=CC(Sc4ccc(F)cc4)=NN3CNC2=O)c(Cl)c1 [Compound 137]	250 to 500	≥ 500	≤ 100	100 to 500	≤ 100	≥ 500	–	–	–	–	–
O=C1C(c2c(Cl)cccc2Cl)=C2C=CC(Sc3ccc(F)cc3)=NN2CN1CO [Compound 138]	≤ 250	≥ 500	100 to 1000	100 to 500	≤ 100	≥ 500	–	–	–	–	–
COc1ccc(C2=C3C=CC(Sc4ccc(F)cc4)=NN3CNC2=O)c(Cl)c1 [Compound 139]	≥ 500	≥ 500	≤ 100	≥ 500	≤ 100	≥ 500	–	–	–	–	–
CN(C)/C=N\c1ccc(C2=C3C=CC(Sc4ccc(F)cc4Cl)=NN3CNC2=O)c(Cl)c1 [Compound 140]	250 to 500	250 to 500	≤ 100	≤ 100	≤ 100	≥ 500	–	–	–	–	–
O=C(CCl)Nc1ccc(C2=C3C=CC(Sc4ccc(F)cc4)=NN3CNC2=O)c(Cl)c1 [Compound 141]	≥ 500	≥ 500	≤ 100	≤ 100	≤ 100	≥ 500	–	–	–	–	–
CC(=O)Nc1ccc(C2=C3C=CC(Sc4ccc(F)cc4)=NN3CNC2=O)c(Cl)c1 [Compound 143]	≥ 500	≥ 500	≤ 100	100 to 500	≤ 100	≥ 500	–	–	–	–	–
O=C(CN1CCOCC1)Nc1ccc(C2=C3C=CC(Sc4ccc(F)cc4)=NN3CNC2=O)c(Cl)c1 [Compound 144]	250 to 500	≥ 500	≤ 100	100 to 500	≤ 100	≥ 500	–	–	–	–	–
O=C1NCN2N=C(Sc3ccc(F)cc3Cl)C=CC2=C1c1cc2c(cc1Cl)OCO2 [Compound 145]	–	–	≤ 100	–	–	–	≤ 250	≤ 250	≤ 100	≤ 100	≤ 250
NC(=O)C(c1ccc(Sc2ccccc2)cn1)c1c(Cl)cccc1Cl (stereo not drawn) [Compound 201]	≥ 500	≥ 500	100 to 1000	≥ 500	≥ 500	≤ 250	–	–	–	–	–
NC(=O)C(c1cccc(-c2ccccc2CO)n1)c1c(Cl)cccc1Cl (stereo not drawn) [Compound 302]	≥ 500	≥ 500	≤ 100	100 to 500	≤ 100	≥ 500	–	–	–	–	–
CNCc1ccccc1-c1cccc(C(C(N)=O)c2c(Cl)cccc2Cl)n1 (stereo not drawn) [Compound 303]	≥ 500	≥ 500	≥ 1000	≥ 500	≥ 500	≥ 500	–	–	–	–	–
NC(=O)C(c1cccc(-c2ccccc2CN2CCNCC2)n1)c1c(Cl)cccc1Cl (stereo not drawn) [Compound 304]	≥ 500	≥ 500	≥ 1000	≥ 500	≥ 500	≥ 500	–	–	–	–	–
Cc1ccccc1-c1cccc(C(C(N)=O)c2c(Cl)cccc2Cl)n1 (stereo not drawn) [Compound 305]	≥ 500	≥ 500	≤ 100	≥ 500	≤ 100	≥ 500	–	–	–	–	–
NC(=O)C(c1cccc(-c2ccccc2)n1)c1c(F)cccc1Cl (stereo not drawn) [Compound 306]	≥ 500	≥ 500	100 to 1000	≥ 500	100 to 500	≥ 500	–	–	–	–	–
